Test results taken from US7825253B2, “2-aminoquinoline derivatives” (Hoffmann-La Roche Inc., priority 2006, dated 2010).

Molecular target: T1, recombinant human 5-HT5A receptor (Homo sapiens, UniProt P47898)
T1 construct: expressed in transfected cells; host or cells: Human Embryonic Kidney-EBNA (HEK-EBNA) cells, transient cDNA expression; membranes
Test: [3H]LSD radioligand binding assay
Conditions: [3H]LSD approx. 1 nM; membranes from HEK-EBNA cells transiently expressing 5-HT5A; Ki from IC50 by Cheng-Prussoff
Procedure: A [^3H]LSD radioligand binding assay was used to determine the affinity of the compounds for the recombinant human 5-HT5A receptor, in membranes from transiently (cDNA) expressed 5-HT5A receptors in Human Embryonic Kidney-EBNA (HEK-EBNA) cells. Assay buffer consisted of Tris (50 mM) buffer containing 1 mM EGTA, 10 mM MgCl2 (pH 7.4) and 10 μM pargyline. The binding assay was carried out in 96-well-plates in the presence of [^3H]LSD (approximately 1 nM), approximately 2 μg/well of membrane protein, and 0.5 mg of Ysi-poly-l-lysine SPA beads in a final volume of 200 μl of buffer. Non-specific binding was defined using methiothepin 2 μM. Compounds were tested at 10 concentrations. All assays were conducted in duplicate and repeated at least two times. Assay plates were incubated for 120 min at room temperature before centrifugation. Bound ligand was determined using a Packard Topcount scintillation counter. IC50 values were calculated using a non-linear curve fitting program and Ki values calculated using the Cheng-Prussoff equation.

T1 sequence (P47898 whole entry): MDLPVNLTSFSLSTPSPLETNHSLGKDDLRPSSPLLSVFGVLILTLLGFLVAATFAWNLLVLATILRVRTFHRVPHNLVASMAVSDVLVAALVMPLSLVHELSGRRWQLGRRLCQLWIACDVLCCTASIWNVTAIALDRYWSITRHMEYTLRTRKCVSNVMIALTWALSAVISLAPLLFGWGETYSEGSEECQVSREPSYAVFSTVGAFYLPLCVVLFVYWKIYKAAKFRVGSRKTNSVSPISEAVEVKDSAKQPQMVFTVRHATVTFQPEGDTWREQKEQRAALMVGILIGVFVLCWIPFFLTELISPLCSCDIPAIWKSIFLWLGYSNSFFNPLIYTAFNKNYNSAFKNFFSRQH

Structure (SMILES) | Ki
Cc1ccc(CNc2ccc3c(Nc4cccc5[nH]ccc45)cccc3n2)o1 [Example 94, N5-(1H-Indol-4-yl)-N2-(5-methyl-furan-2-ylmethyl)-quinoline-2,5-diamine] | 10.7 nM
COc1cccc(CNc2cccc3nc(NCc4ccccc4OC)ccc23)c1 [Example 5, N5-(3-Methoxy-benzyl)-N2-(2-methoxy-benzyl)-quinoline-2,5-diamine] | 9.7 nM
COc1ccccc1CNc1ccc2c(NCc3cc[nH]n3)cccc2n1 [Example 98, N2-(2-Methoxy-benzyl)-N5-(1H-pyrazol-3-ylmethyl)-quinoline-2,5-diamine] | 33.3 nM
COCc1cccc(CCc2cccc3nc(NCc4ccc(C)o4)ccc23)c1 [Example 33, {5-[2-(3-Methoxymethyl-phenyl)-ethyl]-quinolin-2-yl}-(5-methyl-furan-2-ylmethyl)-amine] | 39.3 nM
Cc1ccc(CNc2ccc3c(NS(=O)(=O)Nc4ccccc4)cccc3n2)o1 [Example 145, N-(2-{[(5-methyl-2-furyl)methyl]amino}quinolin-5-yl)-N′-phenylsulfamide] | 51.3 nM
Cc1ccc(CNc2ccc3c(NCc4cccnc4)cccc3n2)o1 [Example 15, N2-(5-Methyl-furan-2-ylmethyl)-N5-pyridin-3-ylmethyl-quinoline-2,5-diamine] | 11.1 nM
COc1ccccc1CNc1ccc2c(C(=NO)c3ccc(F)cc3)cccc2n1 [Example 167, (4-Fluoro-phenyl)-[2-(2-methoxy-benzylamino)-quinolin-5-yl]-methanone oxime] | 7.19 nM
COc1ccccc1CNc1ccc2c(NCc3cnc[nH]3)cccc2n1 [Example 101, N5-(3H-Imidazol-4-ylmethyl)-N2-(2-methoxy-benzyl)-quinoline-2,5-diamine] | 14.5 nM
CC1Cc2cccc(Nc3ccc4c(NS(=O)(=O)c5cc(F)cc(F)c5)cccc4n3)c2O1 (racemic) [Example 134, rac-3,5-Difluoro-N-[2-(2-methyl-2,3-dihydro-benzofuran-7-ylamino)-quinolin-5-yl]-benzenesulfonamide] | 21.7 nM
O=S(=O)(Nc1cccc2nc(NCc3ccccc3OC(F)(F)F)ccc12)c1ccc(F)cc1 [Example 108, 4-Fluoro-N-[2-(2-trifluoromethoxy-benzylamino)-quinolin-5-yl]-benzenesulfonamide] | 49.6 nM
COc1ccccc1CNc1ccc2c(NCc3[nH]cnc3C)cccc2n1 [Example 96, N2-(2-Methoxy-benzyl)-N5-(5-methyl-3H-imidazol-4-ylmethyl)-quinoline-2,5-diamine] | 19.4 nM
Cc1cc2cccc(Nc3ccc4c(NCc5cccnc5)cccc4n3)c2o1 [Example 129, N2-(2-Methyl-benzofuran-7-yl)-N5-pyridin-3-ylmethyl-quinoline-2,5-diamine] | 16 nM
Cc1ccc(CNc2ccc3c(NCc4cccc(S(N)(=O)=O)c4)cccc3n2)o1 [Example 35, 3-({2-[(5-Methyl-furan-2-ylmethyl)-amino]-quinolin-5-ylamino}-methyl)-benzenesulfonamide] | 17 nM
Cc1ccc(CNc2ccc3c(NCc4cnn[nH]4)cccc3n2)o1 [Example 115, N2-(5-Methyl-furan-2-ylmethyl)-N5-(3H-[1,2,3]triazol-4-ylmethyl)-quinoline-2,5-diamine] | 35.3 nM
COc1ccccc1CNc1ccc2c(OCCS(=O)(=O)c3ccccc3)cccc2n1 [Example 84, [5-(2-Benzenesulfonyl-ethoxy)-quinolin-2-yl]-(2-methoxy-benzyl)-amine] | 88.3 nM
Cc1ccc(CNc2ccc3c(NCc4cc[nH]n4)cccc3n2)o1 [Example 88, N2-(5-Methyl-furan-2-ylmethyl)-N5-(1H-pyrazol-3-ylmethyl)-quinoline-2,5-diamine] | 32.9 nM
CC(Nc1cccc2nc(Nc3cccc4c3OC(C)(C)C4)ccc12)c1cccnc1 (racemic) [Example 162, rac-N2-(2,2-Dimethyl-2,3-dihydro-benzofuran-7-yl)-N5-(1-pyridin-3-yl-ethyl)-quinoline-2,5-diamine] | 7.15 nM
Cc1ccc(CNc2ccc3c(NCc4cccc5c4OCO5)cccc3n2)o1 [Example 103, N5-Benzo[1,3]dioxol-4-ylmethyl-N2-(5-methyl-furan-2-ylmethyl)-quinoline-2,5-diamine] | 6.57 nM
COc1ccccc1CNc1ccc2c(OCC[S+]([O-])c3ccccc3)cccc2n1 (stereo not shown) [Example 83, [5-(2-Benzenesulfinyl-ethoxy)-quinolin-2-yl]-(2-methoxy-benzyl)-amine] | 95.6 nM
Cc1ccc(CNc2ccc3c(NS(=O)(=O)Nc4ccc(F)cc4)cccc3n2)o1 [Example 154, N-(2-{[(5-methyl-2-furyl)methyl]amino}quinolin-5-yl)-N′-(4-fluorophenyl)sulfamide] | 25.5 nM

Structure (SMILES) | Ki
Cc1cc2cccc(Nc3ccc4c(NCc5ccc6[nH]cnc6c5)cccc4n3)c2o1 [Example 124, N5-(1H-Benzoimidazol-5-ylmethyl)-N2-(2-methyl-benzofuran-7-yl)-quinoline-2,5-diamine] | 6.29 nM
CC1(C)Cc2cccc(Nc3ccc4c(NCc5ccc6[nH]cnc6c5)cccc4n3)c2O1 [Example 148, N5-(1H-Benzoimidazol-5-ylmethyl)-N2-(2,2-dimethyl-2,3-dihydro-benzofuran-7-yl)-quinoline-2,5-diamine] | 3.08 nM
Cc1nc[nH]c1CNc1cccc2nc(Nc3cccc(C4CC4)c3)ccc12 [Example 166, N2-(3-Cyclopropyl-phenyl)-N5-(5-methyl-3H-imidazol-4-ylmethyl)-quinoline-2,5-diamine] | 34.2 nM
Cc1ccc(CNc2ccc3c(NCc4c[nH]cn4)cccc3n2)o1 [Example 87, N5-(1H-Imidazol-4-ylmethyl)-N2-(5-methyl-furan-2-ylmethyl)-quinoline-2,5-diamine] | 15.7 nM
Cc1cc2cccc(Nc3ccc4c(NCc5cccc6[nH]ccc56)cccc4n3)c2o1 [Example 111, N5-(1H-Indol-4-ylmethyl)-N2-(2-methyl-benzofuran-7-yl)-quinoline-2,5-diamine] | 10.1 nM
CC1(C)Cc2cccc(Nc3ccc4c(NCc5cccc6[nH]ccc56)cccc4n3)c2O1 [Example 147, N2-(2,2-Dimethyl-2,3-dihydro-benzofuran-7-yl)-N5-(1H-indol-4-ylmethyl)-quinoline-2,5-diamine] | 4.31 nM
CSc1ccccc1CNc1ccc2c(NS(=O)(=O)c3ccc(F)cc3)cccc2n1 [Example 82, 4-Fluoro-N-[2-(2-methylsulfanyl-benzylamino)-quinolin-5-yl]-benzenesulfonamide] | 33.9 nM
COc1ccccc1CNc1ccc2c(NCc3ccccc3)cccc2n1 [Example 7, N5-Benzyl-N2-(2-methoxy-benzyl)-quinoline-2,5-diamine] | 7.57 nM
Cc1ccc(CNc2ccc3c(NS(=O)(=O)c4cc(F)cc(F)c4)cccc3n2)o1 [Example 60, 3,5-Difluoro-N-{2-[(5-methyl-furan-2-ylmethyl)-amino]-quinolin-5-yl}-benzenesulfonamide] | 21.7 nM
Cc1ccc(CNc2ccc3c(NCc4ccccn4)cccc3n2)o1 [Example 26, N2-(5-Methyl-furan-2-ylmethyl)-N5-pyridin-2-ylmethyl-quinoline-2,5-diamine] | 21 nM
Cc1ccc(CNc2ccc3c(CCc4ccccn4)cccc3n2)o1 [Example 54, (5-Methyl-furan-2-ylmethyl)-[5-(2-pyridin-2-yl-ethyl)-quinolin-2-yl]-amine] | 44.7 nM
COc1ccccc1CNc1ccc2c(C(=O)c3ccc(F)cc3)cccc2n1 [Example 137, (4-Fluoro-phenyl)-[2-(2-methoxy-benzylamino)-quinolin-5-yl]-methanone] | 50.9 nM
FC(F)(F)Oc1ccccc1CNc1ccc2c(NCc3cccc4[nH]ccc34)cccc2n1 [Example 116, N5-(1H-Indol-4-ylmethyl)-N2-(2-trifluoromethoxy-benzyl)-quinoline-2,5-diamine] | 32.9 nM
Cc1cc2cccc(Nc3ccc4c(Nc5cccc6[nH]ccc56)cccc4n3)c2o1 [Example 113, N5-(1H-Indol-4-yl)-N2-(2-methyl-benzofuran-7-yl)-quinoline-2,5-diamine] | 20.6 nM
COc1ccccc1CNc1ccc2c(NCc3cccc4[nH]ccc34)cccc2n1 [Example 102, N5-(1H-Indol-4-ylmethyl)-N2-(2-methoxy-benzyl)-quinoline-2,5-diamine] | 6.41 nM
Cc1nc[nH]c1CNc1cccc2nc(Nc3cccc4c3OC(C)(C)C4)ccc12 [Example 149, N2-(2,2-Dimethyl-2,3-dihydro-benzofuran-7-yl)-N5-(5-methyl-3H-imidazol-4-ylmethyl)-quinoline-2,5-diamine] | 3.97 nM
Cc1ccc(CNc2ccc3c(CNc4ccccn4)cccc3n2)o1 [Example 37, (5-Methyl-furan-2-ylmethyl)-[5-(pyridin-2-ylaminomethyl)-quinolin-2-yl]-amine] | 49.5 nM
COCCOc1cccc(CNc2cccc3nc(NCc4ccc(C)o4)ccc23)c1 [Example 28, N5-[3-(2-Methoxy-ethoxy)-benzyl]-N2-(5-methyl-furan-2-ylmethyl)-quinoline-2,5-diamine] | 49.4 nM
Cc1ccc(CNc2ccc3c(NCc4ccccc4N4CCN(C)CC4)cccc3n2)o1 [Example 105, N2-(5-Methyl-furan-2-ylmethyl)-N5-[2-(4-methyl-piperazin-1-yl)-benzyl]-quinoline-2,5-diamine] | 24.1 nM
COc1cccc(OC)c1CNc1ccc2c(NCc3cccnc3)cccc2n1 [Example 99, N2-(2,6-Dimethoxy-benzyl)-N5-pyridin-3-ylmethyl-quinoline-2,5-diamine] | 84.6 nM
